The record followed here is publication doi:10.1101/2025.05.09.652710v1 (bioRxiv, 2025).

Assay [1] concerns the target TMPRSS2 (Homo sapiens, UniProt O15393, Q253D/R252D/R255K/S251D/S254D). The assay can be described thus: Fluorogenic kinetic enzyme inhibitor assay, TMPRSS2. The format is biochemical.
In assay [2] the target is T1, HGFA (Homo sapiens, UniProt Q04756).
T1 sequence (Q04756 373-655): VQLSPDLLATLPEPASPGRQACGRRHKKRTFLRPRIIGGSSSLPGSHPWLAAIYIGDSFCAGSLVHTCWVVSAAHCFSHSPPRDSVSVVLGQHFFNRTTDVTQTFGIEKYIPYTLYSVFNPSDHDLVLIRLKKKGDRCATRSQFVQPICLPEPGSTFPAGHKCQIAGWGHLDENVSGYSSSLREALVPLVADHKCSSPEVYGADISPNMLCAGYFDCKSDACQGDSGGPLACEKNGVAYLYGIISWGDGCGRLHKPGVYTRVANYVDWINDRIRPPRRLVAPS
Description: Fluorogenic kinetic enzyme inhibitor assay, HGFA. The format is biochemical.

For assay [3], the target named is hepsin (Homo sapiens, UniProt P05981). Description: Fluorogenic kinetic enzyme inhibitor assay, hepsin. The format is biochemical.
hepsin, sequence (P05981 163-417 limits assumed): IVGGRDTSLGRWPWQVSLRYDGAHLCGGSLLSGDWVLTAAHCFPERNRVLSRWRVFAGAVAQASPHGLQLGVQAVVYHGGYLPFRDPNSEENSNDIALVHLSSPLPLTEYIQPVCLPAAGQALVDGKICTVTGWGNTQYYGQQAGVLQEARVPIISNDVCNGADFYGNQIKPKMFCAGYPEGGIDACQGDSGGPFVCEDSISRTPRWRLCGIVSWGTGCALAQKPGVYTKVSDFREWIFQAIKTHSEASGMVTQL
hepsin, sequence (P05981 45-162 partner limits assumed): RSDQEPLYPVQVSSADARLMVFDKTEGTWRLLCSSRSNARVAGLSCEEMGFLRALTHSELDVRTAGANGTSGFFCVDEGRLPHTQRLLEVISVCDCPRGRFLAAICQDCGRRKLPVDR
In assay [4] the target is thrombin (Homo sapiens, UniProt P00734). The assay can be described thus: Chromogenic kinetic enzyme assay, thrombin. The format is biochemical.
Assay [5] has as its target T2, matriptase (Homo sapiens, UniProt Q9Y5Y6).
T2 sequence (Q9Y5Y6 615-855): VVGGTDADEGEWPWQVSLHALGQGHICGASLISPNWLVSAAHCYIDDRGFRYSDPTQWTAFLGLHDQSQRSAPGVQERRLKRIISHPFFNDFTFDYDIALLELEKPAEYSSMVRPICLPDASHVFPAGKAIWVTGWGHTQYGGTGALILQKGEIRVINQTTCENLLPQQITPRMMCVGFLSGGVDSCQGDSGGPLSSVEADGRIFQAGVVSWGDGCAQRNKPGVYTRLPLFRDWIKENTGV
Description: Fluorogenic kinetic enzyme inhibitor assay, matriptase. The assay is classed as biochemical.

In assay [6] the test system is chimeric VSV SARS-CoV-2 virus. Particulars: for EC50: chimeric VSV virus.
Assay [7] deals with influenza A virus strain A/California/4/2009 (pdmH1N1). Particulars: for H1N1 titer Log fold reduction (1 μM): virus strain A/California/4/2009 (pdmH1N1, 72 h, 1 μM); for H1N1 titer Log fold reduction (10 μM): virus strain A/California/4/2009 (pdmH1N1, 72 h, 10 μM).

TMPRSS2, sequence (O15393 109-492 S251D/R252D/Q253D/S254D/R255K limits assumed): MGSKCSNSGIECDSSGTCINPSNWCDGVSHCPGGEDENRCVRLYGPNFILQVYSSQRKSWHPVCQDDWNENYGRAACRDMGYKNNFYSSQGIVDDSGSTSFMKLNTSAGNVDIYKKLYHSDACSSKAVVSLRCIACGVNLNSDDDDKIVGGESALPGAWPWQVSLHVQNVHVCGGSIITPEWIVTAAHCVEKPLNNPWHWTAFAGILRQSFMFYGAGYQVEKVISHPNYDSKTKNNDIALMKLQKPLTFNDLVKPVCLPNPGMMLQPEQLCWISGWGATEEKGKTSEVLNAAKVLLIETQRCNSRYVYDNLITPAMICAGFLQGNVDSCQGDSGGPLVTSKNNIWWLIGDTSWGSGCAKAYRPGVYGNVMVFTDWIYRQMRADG

Broadly, the IC50 is the concentration needed to halve the response being measured. In the case of `N=C(N)NCCC[C@H](NC(=O)[C@H](Cc1ccccc1)NC(=O)[C@H](CCC(N)=O)N1CCCCC1)C(=O)c1nc2ccccc2s1` [CA1046, Pip-QFR-kbt], in assay [1], the IC50 stood at 8.2 nM.

With `CC[C@H](C)[C@H](NC(C)=O)C(=O)N[C@@H](CCSC)C(=O)N[C@@H](Cc1ccccc1)C(=O)N[C@H](CCCNC(=N)N)C(=O)c1nc2ccccc2s1` [MM4027-1, Ac-IMFdR-kbt], the IC50 in assay [2] was 234 nM; in assay [3] it was 3.16 nM; in assay [4], more than 20000 nM; in assay [5], 16.1 nM; in assay [1], 5.63 nM.

As a reminder, the EC50 is the concentration needed to bring the measured effect to its halfway point. As to `CSCC[C@H](NC(C)=O)C(=O)N[C@@H](CCC(N)=O)C(=O)N[C@@H](Cc1ccccc1)C(=O)N[C@@H](CCCNC(=N)N)C(=O)c1nc2ccccc2s1` [MM3130, Ac-MQFR-kbt], it took 48 nM to reach a half-maximal effect in assay [6] (EC50). In assay [7], the “H1N1 Fold inhibition @ 0.1 μM” value came to 1, the “H1N1 Fold inhibition @ 1 μM” value worked out at 27, the “H1N1 Fold inhibition @ 10 μM” value came out at 510 and the “H1N1 titer Log fold reduction (1 μM)” value is 1.4. In addition, the “H1N1 titer Log fold reduction (10 μM)” value in assay [7] is 2.7. Also, in assay [1], the IC50 amounted to 0.14 nM.

On to `N=C(N)NCCC[C@H](NC(=O)[C@H](Cc1ccccc1)NC(=O)[C@H](CCC(N)=O)NS(=O)(=O)c1ccccc1)C(=O)c1nc2ccccc2s1` [MF1101, PhSO2-QFR-kbt], for which inhibition in assay [2] was half-maximal at 17 nM (IC50). Also, in assay [7], the “H1N1 Fold inhibition @ 0.001 μM” value was 1, the “H1N1 Fold inhibition @ 0.01 μM” value is listed as 1, the “H1N1 Fold inhibition @ 0.1 μM” value was found to be 4 and the “H1N1 Fold inhibition @ 1 μM” value stood at 1014. For the same compound, in assay [7], the “H1N1 Fold inhibition @ 10 μM” value was determined as 1321, the “H1N1 titer Log fold reduction (1 μM)” value amounted to 2.9 and the “H1N1 titer Log fold reduction (10 μM)” value is 3.3. Moreover, the IC50 in assay [1] turned out to be 1 nM.

For the compound `CC(=O)N1CCC[C@H]1C(=O)N[C@@H](CCC(N)=O)C(=O)N[C@@H](Cc1ccccc1)C(=O)N[C@@H](CCCNC(=N)N)C(=O)c1nc2ccccc2s1` [MM3123, Ac-PQFR-kbt], in assay [6], the “VSV SARS-CoV-2 Chimera EC50” value is “below nM” and the EC50 was 0.86 nM. Besides, in assay [7], the “H1N1 titer Log fold reduction (1 μM)” value is given as 1.3 and the “H1N1 titer Log fold reduction (10 μM)” value is listed as 2.6. For the same compound, the IC50 in assay [1] came to 0.06 nM.

In turn, `N=C(N)NCCC[C@H](NC(=O)[C@H](Cc1ccccc1)NC(=O)[C@H](CCC(N)=O)NS(=O)(=O)C1CC1)C(=O)c1nc2ccccc2s1` [MF1104, CypSO2-QFR-kbt] returned an IC50 in assay [2] of 4.2 nM. In assay [7], the “H1N1 Fold inhibition @ 0.001 μM” value is listed as 1, the “H1N1 Fold inhibition @ 0.01 μM” value is on record as 2, the “H1N1 Fold inhibition @ 0.1 μM” value is recorded as 1 and the “H1N1 Fold inhibition @ 1 μM” value was found to be 617. For the same compound, in assay [7], the “H1N1 Fold inhibition @ 10 μM” value came to 916, the “H1N1 titer Log fold reduction (1 μM)” value worked out at 2.9 and the “H1N1 titer Log fold reduction (10 μM)” value came out at 3.0. In assay [1], this compound yielded an IC50 of 0.27 nM.

Regarding `CC(=O)NCC(=O)N[C@@H](CCC(N)=O)C(=O)N[C@@H](Cc1ccccc1)C(=O)N[C@@H](CCCNC(=N)N)C(=O)c1nc2ccccc2s1` [MM3122, Ac-GQFR-kbt], in assay [6], the “VSV SARS-CoV-2 Chimera EC50” value was “below nM” and the EC50 is 0.43 nM. Moreover, in assay [7], the “H1N1 Fold inhibition @ 0.001 μM” value is on record as 2.1, the “H1N1 Fold inhibition @ 0.01 μM” value stood at 4.2, the “H1N1 Fold inhibition @ 0.1 μM” value is recorded as 27.5 and the “H1N1 Fold inhibition @ 1 μM” value came to 2216. Moreover, in assay [7], the “H1N1 Fold inhibition @ 10 μM” value came out at 2952, the “H1N1 titer Log fold reduction (1 μM)” value amounted to 3.4 and the “H1N1 titer Log fold reduction (10 μM)” value is given as 4.3. The compound also had an IC50 in assay [1] of 0.03 nM.

As for `CC(=O)N[C@@H](Cc1c[nH]c2ccccc12)C(=O)N[C@@H](CC(C)C)C(=O)N[C@@H](Cc1ccccc1)C(=O)N[C@@H](CCCNC(=N)N)C(=O)c1nc2ccccc2s1` [ZFH7064, Ac-WLFR-kbt], in assay [1], inhibition was half-maximal at 0.09 nM (IC50). In other words, the picomolar range.

The compound `N=C(N)NCCC[C@H](NC(=O)[C@H](Cc1ccccc1)NC(=O)[C@H](CCC(N)=O)NC(=O)Cc1ccccc1)C(=O)c1nc2ccccc2s1` [CA1018, PhAc-QFR-kbt] registered an IC50 in assay [1] of 0.41 nM.

In the case of `CC[C@H](C)[C@H](NC(C)=O)C(=O)N[C@H](C(=O)N[C@@H](Cc1ccccc1)C(=O)N[C@@H](CCCNC(=N)N)C(=O)c1nc2ccccc2s1)[C@@H](C)O` [MM4028, Ac-ITFR-kbt], the IC50 is 182 nM in assay [2]; 0.86 nM in assay [3]; more than 20000 nM in assay [4]; 4.7 nM in assay [5]; 0.06 nM in assay [1]. The compound further had a concentration giving a half-maximal response (EC50) in assay [6] of 103 nM.

In assay [1], `N=C(N)NCCC[C@H](NC(=O)[C@H](Cc1ccccc1)NC(=O)[C@H](CCC(N)=O)NCc1ccccc1)C(=O)c1nc2ccccc2s1` [CA1022, Bn-QFR-kbt] gave an IC50 of 0.99 nM.

Consider `N=C(N)NCCC[C@H](NC(=O)[C@H](Cc1ccccc1)NC(=O)[C@H](CCC(N)=O)NC(=O)c1ccccc1)C(=O)c1nc2ccccc2s1` [CA1043, Bz-QFR-kbt], for which, in assay [7], the “H1N1 Fold inhibition @ 0.001 μM” value was 1, the “H1N1 Fold inhibition @ 0.01 μM” value came to 1, the “H1N1 Fold inhibition @ 0.1 μM” value is listed as 5 and the “H1N1 Fold inhibition @ 1 μM” value is given as 968. Besides, in assay [7], the “H1N1 Fold inhibition @ 10 μM” value is reported as 774, the “H1N1 titer Log fold reduction (1 μM)” value stood at 3.1 and the “H1N1 titer Log fold reduction (10 μM)” value was 3.0. Further, the IC50 in assay [1] worked out at 0.08 nM.

As to `N=C(N)NCCC[C@H](NC(=O)[C@H](Cc1ccccc1)NC(=O)[C@H](CCC(N)=O)NCCc1ccccc1)C(=O)c1nc2ccccc2s1` [CA1033, PhCH2CH2-QFR-kbt], the IC50 in assay [1] is 0.32 nM.

Regarding `CC(=O)N[C@@H](CC(C)C)C(=O)N[C@@H](CCC(N)=O)C(=O)N[C@@H](Cc1ccccc1)C(=O)N[C@@H](CCCNC(=N)N)C(=O)c1nc2ccccc2s1` [MM3131, Ac-LQFR-kbt], in assay [6], a half-maximal response (EC50) required 11 nM. This compound also had a half-inhibitory concentration (IC50) in assay [1] of 0.03 nM.

On to `N=C(N)NCCC[C@H](NC(=O)[C@H](Cc1ccccc1)NC(=O)[C@H](CCC(N)=O)NC(=O)OCc1ccccc1)C(=O)c1nc2ccccc2s1` [ZFH9141, Cbz-QFR-kbt], for which the IC50 in assay [2] worked out at 85 nM. In addition, in assay [7], the “H1N1 Fold inhibition @ 0.001 μM” value turned out to be 2, the “H1N1 Fold inhibition @ 0.01 μM” value is listed as 6, the “H1N1 Fold inhibition @ 0.1 μM” value is reported as 483 and the “H1N1 Fold inhibition @ 1 μM” value is 578. Moreover, in assay [7], the “H1N1 Fold inhibition @ 10 μM” value was 578, the “H1N1 titer Log fold reduction (1 μM)” value is on record as 2.8 and the “H1N1 titer Log fold reduction (10 μM)” value was determined as 2.8. Besides, in assay [1], the midpoint of inhibition, the IC50, lay at 0.42 nM.

`CN(C)[C@@H](CCC(N)=O)C(=O)N[C@@H](Cc1ccccc1)C(=O)N[C@@H](CCCNC(=N)N)C(=O)c1nc2ccccc2s1` [CA1041, Dimethyl-QFR-kbt] displayed an IC50 in assay [1] of 0.86 nM.

The compound `CC(=O)N1CCC[C@H]1C(=O)N[C@@H](CO)C(=O)N[C@@H](CCCCN)C(=O)N[C@@H](CCCNC(=N)N)C(=O)c1nc2ccccc2s1` [MM3194, Ac-PSKR-kbt] had a half-inhibitory concentration (IC50) in assay [4] of more than 20000 nM. The EC50 in assay [6] amounted to 613 nM. Further, in assay [7], the “H1N1 Fold inhibition @ 0.1 μM” value is given as 1, the “H1N1 Fold inhibition @ 1 μM” value amounted to 1, the “H1N1 Fold inhibition @ 10 μM” value was determined as 4 and the “H1N1 titer Log fold reduction (1 μM)” value amounted to 0. Besides, in assay [7], the “H1N1 titer Log fold reduction (10 μM)” value came to 0.60. The same compound had an IC50 in assay [1] of 0.29 nM.

On to `CC[C@H](C)[C@H](NC(C)=O)C(=O)N[C@H](C(=O)N[C@@H](Cc1ccccc1)C(=O)N[C@H](CCCNC(=N)N)C(=O)c1nc2ccccc2s1)[C@@H](C)O` [MM4028-1, Ac-ITFdR-kbt], for which the values for the IC50 in assay [2], in assay [4] and in assay [1] were 1120 nM, more than 20000 nM and 1.42 nM, respectively.

Turning to `CC[C@H](C)[C@H](NC(C)=O)C(=O)N[C@@H](CCC(=O)O)C(=O)N[C@@H](Cc1ccccc1)C(=O)N[C@H](CCCNC(=N)N)C(=O)c1nc2ccccc2s1` [MM4037-1, Ac-IEFdR-kbt], the figures for the IC50 in assay [2], in assay [4] and in assay [1] were more than 20000 nM, more than 20000 nM and 0.38 nM, respectively.

Compound `CS(=O)(=O)N[C@@H](CCC(N)=O)C(=O)N[C@@H](Cc1ccccc1)C(=O)N[C@@H](CCCNC(=N)N)C(=O)c1nc2ccccc2s1` [MF1099, MeSO2-QFR-kbt, reference compound] displayed a half-inhibitory concentration (IC50) in assay [2] of 341 nM.

`CC[C@H](C)[C@H](NC(C)=O)C(=O)N[C@@H](CCSC)C(=O)N[C@@H](Cc1ccccc1)C(=O)N[C@@H](CCCNC(=N)N)C(=O)c1nc2ccccc2s1` [MM4027, Ac-IMFR-kbt]: the IC50 was 1.3 nM in assay [3], more than 20000 nM in assay [4], 0.51 nM in assay [5] and 3 nM in assay [1]. Also, the EC50 in assay [6] was determined as 92 nM.

Take `N=C(N)NCCC[C@H](NC(=O)[C@H](Cc1ccccc1)NC(=O)[C@H](CCC(N)=O)NS(=O)(=O)Cc1ccccc1)C(=O)c1nc2ccccc2s1` [MF1105, BnSO2-QFR-kbt]: the concentration for half-maximal inhibition (IC50) was 6.5 nM in assay [2], more than 20000 nM in assay [4] and 0.07 nM in assay [1].
